The nature of assay [1]: NIH3T3 cell viability loss – ATP luminescence, mouse fibroblasts, counter-screen, dose response (AID 2010).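 Further: cells exposed to compound for about 90 hours before reading.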 The format is functional, cell-based. (A counterscreen serves to expose hits that act by an unwanted route or on another target.)
Assay [2] is described as follows: cells.
A short description of assay [3]: Trypanosoma cruzi growth suppression in host cells – NIH3T3 host cells, beta-gal luminescence, confirmation (AID 2044).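 Further: intracellular parasites grown in NIH/3T3 mouse fibroblasts as host cells; luminescent beta-galactosidase reporter signal from transgenic T. cruzi replicating inside host cells; inhibitors lower the luminescence signal.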 The format is functional, cell-based.
The target of assay [4] is T1, Aryl hydrocarbon receptor (Homo sapiens, UniProt P35869).
T1 sequence (P35869 whole entry): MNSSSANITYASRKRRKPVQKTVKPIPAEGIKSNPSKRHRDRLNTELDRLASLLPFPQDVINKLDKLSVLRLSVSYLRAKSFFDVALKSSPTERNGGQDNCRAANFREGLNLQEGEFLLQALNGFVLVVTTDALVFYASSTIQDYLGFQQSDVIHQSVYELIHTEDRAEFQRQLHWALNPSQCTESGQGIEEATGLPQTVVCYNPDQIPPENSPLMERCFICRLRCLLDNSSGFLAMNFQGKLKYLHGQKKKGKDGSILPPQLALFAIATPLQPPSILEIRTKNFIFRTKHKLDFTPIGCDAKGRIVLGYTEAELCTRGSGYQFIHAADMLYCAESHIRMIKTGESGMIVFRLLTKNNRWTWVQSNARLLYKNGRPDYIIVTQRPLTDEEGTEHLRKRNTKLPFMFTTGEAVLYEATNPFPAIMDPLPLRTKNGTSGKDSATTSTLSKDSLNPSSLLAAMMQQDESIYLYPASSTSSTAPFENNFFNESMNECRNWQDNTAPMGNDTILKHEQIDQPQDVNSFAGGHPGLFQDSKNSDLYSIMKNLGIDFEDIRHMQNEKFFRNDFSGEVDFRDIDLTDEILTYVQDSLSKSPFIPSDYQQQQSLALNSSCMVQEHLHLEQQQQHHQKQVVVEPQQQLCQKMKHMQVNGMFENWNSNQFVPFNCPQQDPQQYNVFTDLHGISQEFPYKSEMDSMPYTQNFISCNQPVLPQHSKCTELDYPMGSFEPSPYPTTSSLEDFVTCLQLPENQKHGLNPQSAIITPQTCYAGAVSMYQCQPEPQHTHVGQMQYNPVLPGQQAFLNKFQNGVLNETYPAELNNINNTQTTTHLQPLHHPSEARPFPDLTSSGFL
The assay is described as follows: Luminescence-based cell-based high throughput dose response assay for activators of the Aryl Hydrocarbon Receptor (AHR). [Related pubchem assays: 2796 (Primary screen (AHR activators in singlicate)), 2845 (Confirmation screen (AHR activators in triplicate)), 434939 (Counterscreen (PXR activators in triplicate)), 2804 (Summary (AHR activators))]. The class given is ADME.

The target in a further assay is Kallikrein-7 (Homo sapiens, UniProt P49862). Put plainly: Fluorescence Intensity-based biochemical primary high throughput dose response assay to identify activators of kallikrein-7 (K7) zymogen.
Sequence of Kallikrein-7 (P49862 whole entry): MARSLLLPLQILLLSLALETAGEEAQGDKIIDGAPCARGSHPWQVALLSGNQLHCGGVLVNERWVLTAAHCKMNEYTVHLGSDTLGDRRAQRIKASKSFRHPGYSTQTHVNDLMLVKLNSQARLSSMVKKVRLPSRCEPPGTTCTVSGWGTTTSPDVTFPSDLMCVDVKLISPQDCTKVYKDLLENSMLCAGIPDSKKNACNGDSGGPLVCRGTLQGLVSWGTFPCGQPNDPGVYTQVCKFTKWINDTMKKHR
Assay [5] is described as follows: viability loss in THP-1 monocytes – THP-1 cells, cytotoxicity control for Vif-APOBEC3G degradation inhibitor project, dose response (AID 1117359). The format is functional. The conditions noted are these: THP-1.
A short description of assay [6]: Dd2 parasite growth inhibition in erythrocytes – SYBR Green, dry powder samples, set 9, dose response (AID 1159568). The class given is functional, cell-based.
For the next assay, the target named is Nonstructural protein 1 (Influenza A virus, UniProt Q194T2). The format is functional, Influenza A virus (A/California/07/2009(H1N1)).
Sequence of Nonstructural protein 1 (Q194T2 whole entry): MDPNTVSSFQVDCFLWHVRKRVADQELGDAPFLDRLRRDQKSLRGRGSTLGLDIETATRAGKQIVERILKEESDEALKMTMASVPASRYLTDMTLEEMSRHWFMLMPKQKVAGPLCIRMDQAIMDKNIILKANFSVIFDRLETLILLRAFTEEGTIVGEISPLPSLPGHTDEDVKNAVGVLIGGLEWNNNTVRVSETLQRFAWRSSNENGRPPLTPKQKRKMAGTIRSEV
The target in assay [7] is T2, Sentrin-specific protease 6 (Homo sapiens, UniProt Q9GZR1).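 Further: Luminescence-based dose-response confirmatory assay of SENP6 inhibition, following up an ultra-high-throughput screen.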
T2 sequence (Q9GZR1 whole entry): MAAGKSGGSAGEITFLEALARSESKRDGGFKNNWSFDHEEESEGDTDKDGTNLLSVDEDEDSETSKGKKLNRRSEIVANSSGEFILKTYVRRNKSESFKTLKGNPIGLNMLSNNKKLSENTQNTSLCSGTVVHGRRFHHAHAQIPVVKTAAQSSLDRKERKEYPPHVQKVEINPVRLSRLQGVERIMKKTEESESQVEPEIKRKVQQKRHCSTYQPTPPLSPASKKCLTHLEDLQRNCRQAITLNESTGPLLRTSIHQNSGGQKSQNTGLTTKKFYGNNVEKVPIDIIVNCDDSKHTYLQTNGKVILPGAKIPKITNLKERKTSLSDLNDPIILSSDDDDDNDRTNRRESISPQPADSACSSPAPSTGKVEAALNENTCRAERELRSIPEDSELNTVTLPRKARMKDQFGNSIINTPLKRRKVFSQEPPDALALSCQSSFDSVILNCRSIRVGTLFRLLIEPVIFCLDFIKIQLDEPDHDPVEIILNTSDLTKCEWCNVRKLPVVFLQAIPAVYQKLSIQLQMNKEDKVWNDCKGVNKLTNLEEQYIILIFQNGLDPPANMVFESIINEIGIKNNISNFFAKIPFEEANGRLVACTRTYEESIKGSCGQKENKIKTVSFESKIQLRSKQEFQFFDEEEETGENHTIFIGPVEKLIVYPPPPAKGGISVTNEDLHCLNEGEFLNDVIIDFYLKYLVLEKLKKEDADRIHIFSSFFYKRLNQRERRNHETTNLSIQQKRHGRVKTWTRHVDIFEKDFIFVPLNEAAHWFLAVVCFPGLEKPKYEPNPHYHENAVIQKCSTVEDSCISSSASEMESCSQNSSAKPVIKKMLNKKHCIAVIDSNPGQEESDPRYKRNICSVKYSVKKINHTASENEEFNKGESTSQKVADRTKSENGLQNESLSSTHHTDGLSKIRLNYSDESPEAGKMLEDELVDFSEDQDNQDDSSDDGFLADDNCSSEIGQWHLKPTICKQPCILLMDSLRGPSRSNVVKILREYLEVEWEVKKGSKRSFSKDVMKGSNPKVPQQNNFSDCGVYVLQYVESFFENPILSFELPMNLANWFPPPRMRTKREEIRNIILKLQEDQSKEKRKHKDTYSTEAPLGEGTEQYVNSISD
The class given is functional.

Assay [8] is described as follows: Luminescence Cell-Based Dose Response HTS to Identify Activators of Luciferase Translation or Activity in H4 […] Cells. [Related pubchem assays: 1829 (Project Summary), 1814 (Primary HTS)]. The class given is functional.
Assay [9] in a line: cells. The class given is functional, cell-based.
Assay [10] has as its target T3, Sentrin-specific protease 7 (Homo sapiens, UniProt Q9BQF6).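 Further: Luminescence-based dose-response confirmation of ultra-high-throughput screening hits, measuring inhibition of SENP7.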
T3 sequence (Q9BQF6 whole entry): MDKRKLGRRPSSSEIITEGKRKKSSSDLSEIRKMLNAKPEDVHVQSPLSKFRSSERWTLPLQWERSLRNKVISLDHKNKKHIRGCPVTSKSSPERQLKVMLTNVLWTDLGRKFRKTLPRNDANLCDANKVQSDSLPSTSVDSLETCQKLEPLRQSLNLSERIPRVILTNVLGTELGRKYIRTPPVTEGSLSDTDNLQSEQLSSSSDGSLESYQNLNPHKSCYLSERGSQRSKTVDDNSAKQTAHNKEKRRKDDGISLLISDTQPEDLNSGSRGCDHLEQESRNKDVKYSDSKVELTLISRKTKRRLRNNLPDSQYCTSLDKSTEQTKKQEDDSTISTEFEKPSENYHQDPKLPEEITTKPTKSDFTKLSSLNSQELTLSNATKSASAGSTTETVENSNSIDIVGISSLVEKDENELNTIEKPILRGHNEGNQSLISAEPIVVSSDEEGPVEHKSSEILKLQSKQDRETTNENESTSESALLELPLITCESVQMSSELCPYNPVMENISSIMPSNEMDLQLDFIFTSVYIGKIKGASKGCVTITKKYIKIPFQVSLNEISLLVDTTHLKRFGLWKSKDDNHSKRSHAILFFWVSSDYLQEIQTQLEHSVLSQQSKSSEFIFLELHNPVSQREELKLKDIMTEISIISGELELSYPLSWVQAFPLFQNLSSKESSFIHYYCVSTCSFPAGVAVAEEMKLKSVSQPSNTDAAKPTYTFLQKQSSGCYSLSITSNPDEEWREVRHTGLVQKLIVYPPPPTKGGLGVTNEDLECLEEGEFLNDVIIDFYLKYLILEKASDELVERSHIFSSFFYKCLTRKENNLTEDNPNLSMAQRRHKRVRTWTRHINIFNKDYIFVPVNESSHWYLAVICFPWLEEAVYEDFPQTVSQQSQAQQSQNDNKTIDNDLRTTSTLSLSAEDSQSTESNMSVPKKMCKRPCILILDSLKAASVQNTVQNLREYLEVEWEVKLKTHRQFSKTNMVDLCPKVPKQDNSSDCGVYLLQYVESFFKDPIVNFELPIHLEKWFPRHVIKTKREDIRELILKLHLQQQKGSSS
The class given is functional.

Assay [11] is described as follows: cells. The format is functional, cell-based. The source holds these as a separate data set.
The next assay addresses T4, Caspase-3 (Homo sapiens, UniProt P42574).
T4 sequence (P42574 whole entry): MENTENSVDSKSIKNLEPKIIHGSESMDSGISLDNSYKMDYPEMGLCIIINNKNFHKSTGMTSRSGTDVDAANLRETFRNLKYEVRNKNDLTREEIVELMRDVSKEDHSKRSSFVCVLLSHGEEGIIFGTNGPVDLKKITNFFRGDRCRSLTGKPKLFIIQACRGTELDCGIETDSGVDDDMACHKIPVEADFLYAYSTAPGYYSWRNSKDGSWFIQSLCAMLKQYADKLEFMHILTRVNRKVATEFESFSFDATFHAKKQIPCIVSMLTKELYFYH
The format is functional.

The nature of assay [12]: Luminescence Cell-Based Dose Confirmation HTS to Identify Activators of 5'UTR Stem-Loop Driven Alpha-Synuclein mRNA Translation in H4 Neuroglioblastoma Cells. [Related pubchem assays: 1829 (Project Summary), 1814 (Primary HTS)]. The class given is functional.
Assay [13] has as its target T5, Oxysterols receptor LXR-beta (Homo sapiens, UniProt P55055).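 Further: Cell-based luminescence dose-response assay of agonist activity at LXR, run as a confirmatory counterscreen to a daf-12 agonist screen; HEK293 cells with Gal4-LXR fusion and GAL4-driven luciferase reporter; agonist potency from rising luciferase signal of a Gal4-LXR reporter.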
T5 sequence (P55055 whole entry): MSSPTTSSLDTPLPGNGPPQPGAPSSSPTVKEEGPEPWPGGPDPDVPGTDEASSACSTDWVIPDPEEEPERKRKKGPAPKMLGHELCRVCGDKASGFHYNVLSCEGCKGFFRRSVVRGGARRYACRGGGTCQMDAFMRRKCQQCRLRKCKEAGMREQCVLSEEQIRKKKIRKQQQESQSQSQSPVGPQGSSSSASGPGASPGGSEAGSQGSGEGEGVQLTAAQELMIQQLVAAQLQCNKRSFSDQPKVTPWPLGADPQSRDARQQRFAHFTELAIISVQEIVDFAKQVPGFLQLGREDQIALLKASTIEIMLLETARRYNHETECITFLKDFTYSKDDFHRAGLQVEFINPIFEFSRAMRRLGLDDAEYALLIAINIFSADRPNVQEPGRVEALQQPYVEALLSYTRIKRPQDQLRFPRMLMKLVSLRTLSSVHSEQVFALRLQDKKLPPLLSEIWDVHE
The format is functional, cell-based.

Assay [14] is described as follows: cells. The source holds these as a separate data set.
The test system of a further assay is H4. Put plainly: Luminescence Cell-Based Dose Response HTS to Identify Activators of 5'UTR Stem-Loop Driven Prion Protein mRNA Translation in H4 Neuroglioblastoma Cells. [Related pubchem assays: 1829 (Project Summary), 1814 (Primary HTS)]. The format is functional. The conditions noted are these: Homo sapiens.
Assay [15] concerns the target T6, Sentrin-specific protease 8 (Homo sapiens, UniProt Q96LD8).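 Further: luminescence read-out of SENP8 inhibition, dose-response confirmation following an ultra-high-throughput screen.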
T6 sequence (Q96LD8 whole entry): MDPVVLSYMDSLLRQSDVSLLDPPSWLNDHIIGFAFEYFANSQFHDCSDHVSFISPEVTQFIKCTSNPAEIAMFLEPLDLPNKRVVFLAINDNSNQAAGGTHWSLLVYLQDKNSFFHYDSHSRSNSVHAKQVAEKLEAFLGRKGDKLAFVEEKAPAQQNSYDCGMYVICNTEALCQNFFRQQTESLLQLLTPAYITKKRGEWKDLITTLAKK
The class given is functional.

The source made the active and inactive calls.

As a reminder, the EC50 is the concentration needed to bring the measured effect to its halfway point. With `O=C(CCC1CCCN(Cc2ccc3c(c2)CCO3)C1)NCc1ccc(F)c(F)c1` (centres undefined), the half-maximal effective concentration (EC50) was > 60 µM (not active) in [1], 0.011 µM (active) in “cells [2]” and < 0.1 µM (active) in [3].

In the case of `COc1ccc(C)cc1N=C(N)Nc1nc(C)cc(C)n1`, the EC50 in assay [4] was 3.95 µM (active).

Take `Cc1occc1C(=O)NC1CCCN(Cc2ccc(CC(C)C)cc2)C1` (centres undefined): the EC50 in [1] is > 60 µM (not active); in the assay “cells [2]” it was 0.073 µM (active); in assay [3], < 0.1 µM (active).

With `CCCc1cc(NCCOCCO)n2c(nc3ccccc32)c1C#N`, on Kallikrein-7, the EC50 was > 2.57 µM (active).

The term CC50 denotes the concentration giving 50% cytotoxicity. As for `CCOC(=O)c1c(C)nn(Cc2cccc(Cl)c2)c1N`, in assay [5], the CC50 was > 40 µM (active).

For orientation: AC50 means the midpoint of the concentration-response curve, whichever way the signal moves. For `CCCC#Cc1ccc2c(c1)O[C@H](CN(C)Cc1ccccn1)[C@H](C)CN([C@@H](C)CO)S2(=O)=O`, in assay [6], the AC50 is 3.94 µM (active).

With `COc1ccc(NC(=O)c2ccc(NC(=O)CSc3nc(N)cc(O)n3)cc2)cc1`, on Kallikrein-7, the EC50 was 22.4 µM (inactive).

Regarding `CC(=O)Nc1cc(-c2ccc(Cl)cc2)n[nH]1`, the EC50 in assay [4] was 1.8 µM (active).

One may read the IC50 as the concentration that gives 50% inhibition. For the compound `c1ccc(N=Nc2ccc3cccccc2-3)cc1`, the IC50 was 10.8 µM (active) at Nonstructural protein 1; 13.9 µM (active) in assay [7]; 4.59 µM (active) in assay [10]; 24.5 µM (active) on Caspase-3; 22.3 µM (active) in assay [15]. Besides, the EC50 in assay [8] was 1.1 µM (active); in “cells [9]”, 6.29 µM (active); in “cells [11]” it was > 350 µM (not active); in assay [12], 0.771 µM (active); in assay [13], > 67.5 µM (inactive); in “cells [14]”, > 67.5 µM (inactive). In addition, the EC50 with H4 is > 120 µM (not active).

In the case of `COc1cccc(C(=O)O/N=C(\N)c2ccc([N+](=O)[O-])cc2)c1`, the EC50 in assay [4] was 3.57 µM (active).

Consider `O=C(CCc1c[nH]c2ccccc12)N1CCN(c2ccc(O)cc2)CC1`, for which the CC50 in assay [5] was > 40 µM (active).

Take `COC(=O)C1=NN(c2ccccc2)C2C(=O)N(c3ccccc3OC)C(=O)C12` (centres undefined): at Kallikrein-7, the EC50 is > 69.5 µM (inactive).

In the case of `C[C@@H]1CN([C@H](C)CO)C(=O)c2ccccc2-c2ccccc2CO[C@H]1CN(C)C(=O)[C@H](Cc1ccccc1)N(C)C`, in assay [6], the AC50 is 11.9 µM (active).

For `Clc1ccc(CNc2ccc(CNc3nc[nH]n3)cc2)c(Cl)c1`, the CC50 in assay [5] was > 40 µM (active).
